US9315475B2 (MERCK SHARP & DOHME CORP., priority 2011, dated 2016)

What was measured:
wildtype HIV-1 protease = biological target: T1, wildtype HIV-1 protease (Human immunodeficiency virus type 1 group M subtype B, UniProt P04585); experiment: Assay for inhibition of microbial expressed HIV protease (Pepcleav); assay type: biochemical; details: wild type HIV-1 protease expressed in E. coli, peptide substrate, pH 5.5; mean of at least two independent experiments; read-out: Pepcleav
T1 construct: the wildtype HIV-1 protease (which was expressed in Escherichia coli); made in house; host or cells: Escherichia coli
Summary of the method: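 E. coli-expressed wild-type HIV-1 protease (20 pM) preincubated 30 min at room temperature with inhibitor in pH 5.5 sodium acetate/NaCl/BSA buffer, then 400 μM Val-Ser-Gln-Asn-(βnaphthyl)Ala-Pro-Ile-Val added for 1 h at 30 °C. Quenched with formic acid; product quantified by LC-MS/MS peak area, indinavir internal standard.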

HIV-1 (H9IIIB strain) = experiment: Antiviral acute infection assay in cell culture (Spread); assay type: cell-based; details: Human immunodeficiency virus 1, T-lymphoid, HIV-1 H9IIIB infection of MT-4 human T-lymphoid cells in 10% FBS; mean of at least two independent experiments
From the text: Antiviral Assays in Cell Culture (“Spread”)
Acute Infection Assay (“Spread”) data were generated using HIV-1 (H9IIIB strain) infection of MT-4 human T-lymphoid cells in 10% FBS, and according to the methods disclosed by J. P. Vacca et al, “L-735,524: An orally bioavailable human immunodeficiency virus type 1 protease inhibitor,” Proc. Natl. Acad. Sci. USA, Vol. 91, pp. 4096-4100 (April 1994).

`N[C@H](C(=O)Nc1cncc(F)c1CC[C@@H]1CN[C@H](COC(=O)NCC(F)(F)F)CO1)[C@H](c1ccc(F)cc1)c1ccc(OC(F)(F)F)cc1` [Example 246, (βS)-β-(4-fluorophenyl)-N-(5-fluoro-4-{2-[(2R,5S)-5-({[(2,2,2-trifluoroethyl)carbamoyl]oxy}methyl)morpholin-2-yl]ethyl}pyridin-3-yl)-O-(trifluoromethyl)-L-tyrosinamide] was tested, and the IC50 (wildtype HIV-1 protease) was 13 nM and the EC50 (HIV-1 (H9IIIB strain)) was 390 nM.

Work on `CN[C@H](C(=O)Nc1cncc(F)c1CC[C@@H]1CN[C@H](COC(=O)NCC(F)(F)F)CO1)C(c1ccc(F)cc1)c1ccc(F)cc1` [Example 202, 4-fluoro-β-(4-fluorophenyl)-N-(5-fluoro-4-{2-[(2R,5S)-5-({[(2,2,2-trifluoroethyl)carbamoyl]oxy}methyl)morpholin-2-yl]ethyl}pyridin-3-yl)-Nα-methyl-L-phenylalaninamide] yielded an IC50 (wildtype HIV-1 protease) of 28 nM and an EC50 (HIV-1 (H9IIIB strain)) of 65 nM.

`COC(=O)N[C@H](C(=O)Nc1cncc(F)c1CC[C@@H]1CN[C@H](COC(=O)NCC(F)(F)F)CO1)[C@H](c1ccccc1)c1ccc(Cl)cc1` [Example 107, (βR)-β-(4-Chlorophenyl)-N-(5-fluoro-4-{2-[(2R,5S)-5-({[(2,2,2-trifluoroethyl)carbamoyl]oxy}methyl)morpholin-2-yl]ethyl}pyridin-3-yl)-Nα-(methoxycarbonyl)-L-phenylalaninamide] was tested, and the IC50 (wildtype HIV-1 protease) was 0.3 nM and the EC50 (HIV-1 (H9IIIB strain)) was 11 nM.

In the case of `CC[C@@H](NC(=O)OC[C@@H]1CO[C@H](CCc2c(F)cncc2NC(=O)[C@@H](N)C(c2ccc(F)cc2)c2ccc(F)cc2)CN1)C(F)(F)F` [Example 216], the IC50 (wildtype HIV-1 protease) is reported as 3.3 nM and the EC50 (HIV-1 (H9IIIB strain)) is reported as 2000 nM.

`N[C@H](C(=O)Nc1cccc(F)c1CC[C@@H]1CN[C@H](COC(=O)NCC(F)(F)F)CO1)C(c1cccc(F)c1)c1cccc(F)c1` [Example 262, 3-fluoro-β-(3-fluorophenyl)-N-(3-fluoro-2-{2-[(2R,5S)-5-({[(2,2,2-trifluoroethyl)carbamoyl]oxy}methyl)morpholin-2-yl]ethyl}phenyl)-L-phenylalaninamide] gave an IC50 (wildtype HIV-1 protease) of 4 nM and an EC50 (HIV-1 (H9IIIB strain)) of 15 nM.

Compound `O=C(C[C@H](c1ccc(F)cc1)c1ccc(Cl)cc1)Nc1cccc(F)c1CC[C@@H]1CN[C@H](COC(=O)NCC(F)(F)F)CO1` [Example 154, {(3S,6R)-6-[2-(2-{[(3R)-3-(4-chlorophenyl)-3-(4-fluorophenyl)propanoyl]amino}-6-fluoro-phenyl)ethyl]morpholin-3-yl}methyl (2,2,2-trifluoroethyl)carbamate] has an IC50 (wildtype HIV-1 protease) of 5.1 nM and an EC50 (HIV-1 (H9IIIB strain)) of 150 nM.

Work on `N[C@H](C(=O)Nc1cncc(F)c1CC[C@@H]1CN[C@H](COC(=O)NC(CC(F)(F)F)c2ccc(F)cc2)CO1)C(c1ccc(F)cc1)c1ccc(F)cc1` (stereo partly drawn) [Example 276, 4-fluoro-β-(4-fluorophenyl)-N-[5-fluoro-4-(2-{(2R,5S)-5-[({[3,3,3-trifluoro-1-(4-fluorophenyl)propyl]carbamoyl}oxy)methyl]morpholin-2-yl}ethyl)pyridin-3-yl]-L-phenylalaninamide] yielded an IC50 (wildtype HIV-1 protease) of 0.2 nM and an EC50 (HIV-1 (H9IIIB strain)) of 28 nM.

For `O=C(C[C@@H](c1ccc(F)cc1)C1CCCCC1)Nc1cncc(F)c1CC[C@@H]1CN[C@H](COC(=O)NCC(F)(F)F)CO1` [Example 148, {(3S,6R)-6-[2-(3-{[(3R)-3-cyclohexyl-3-(4-fluorophenyl)propanoyl]amino}-5-fluoropyridin-4-yl)ethyl]morpholin-3-yl}methyl (2,2,2-trifluoroethyl)carbamate], the IC50 (wildtype HIV-1 protease) was 22 nM and the EC50 (HIV-1 (H9IIIB strain)) was 150 nM.

`NC(=O)OC[C@@H]1CO[C@H](CCc2c(F)cccc2NC(=O)[C@@H](N)C(c2ccc(F)cc2)c2ccc(F)cc2)CN1` [Example 116, N-[2-(2-{(2R,5S)-5-[(Carbamoyloxy)methyl]morpholin-2-yl}ethyl)-3-fluorophenyl]-4-fluoro-β-(4-fluorophenyl)-L-phenylalaninamide] showed an IC50 (wildtype HIV-1 protease) of 17 nM and an EC50 (HIV-1 (H9IIIB strain)) of 47 nM.

`O=C(C[C@@H](c1ccc(F)cc1)c1cc(F)cc(F)c1)Nc1cccc(F)c1CC[C@@H]1CN[C@H](COC(=O)NCC(F)(F)F)CO1` [Example 147, {(3S,6R)-6-[2-(2-{[(3S)-3-(3,5-difluorophenyl)-3-(4-fluorophenyl)propanoyl]amino}-6-fluorophenyl)ethyl]morpholin-3-yl} methyl (2,2,2-trifluoroethyl)carbamate] showed an IC50 (wildtype HIV-1 protease) of 4.9 nM and an EC50 (HIV-1 (H9IIIB strain)) of 120 nM.

`N[C@H](C(=O)Nc1cccc(F)c1CC[C@@H]1CN[C@H](COC(=O)NCC(F)(F)F)CO1)[C@@H](c1ccc(F)cc1)c1ccc(OC(F)(F)F)cc1` [Example 219, (βR)-β-(4-fluorophenyl)-N-(3-fluoro-2-{2-[(2R,5S)-5-({[(2,2,2-trifluoroethyl)carbamoyl]oxy}methyl)morpholin-2-yl]ethyl}phenyl)-O-(trifluoromethyl)-L-tyrosinamide] was tested, and the EC50 (HIV-1 (H9IIIB strain)) was 140 nM.

Work on `NC(=O)OC[C@@H]1CO[C@H](CCc2c(F)cccc2NC(=O)[C@@H](N)[C@@H](c2ccc(F)cc2)c2cccc(F)c2)CN1` [Example 120, (βS)—N-[2-(2-{(2R,5S)-5-[(Carbamoyloxy)methyl]morpholin-2-yl}ethyl)-3-fluorophenyl]-4-fluoro-β-(3-fluorophenyl)-L-phenylalaninamide] yielded an EC50 (HIV-1 (H9IIIB strain)) of 20 nM.

`O=C(C[C@@H](c1ccc(F)cc1)c1ccc(C(F)(F)F)nc1)Nc1cncc(F)c1CC[C@@H]1CN[C@H](COC(=O)NCC(F)(F)F)CO1` [Example 133, [(3S,6R)-6-{2-[3-Fluoro-5-({(3S)-3-(4-fluorophenyl)-3-[6-(trifluoromethyl)pyridin-3-yl]propanoyl}amino)pyridin-4-yl]ethyl}morpholin-3-yl]methyl (2,2,2-trifluoroethyl)carbamate] gave an EC50 (HIV-1 (H9IIIB strain)) of 23 nM.

`O=C(C[C@@H](c1ccc(Cl)cc1)c1ccc2c(c1)CCO2)Nc1cncc(F)c1CC[C@@H]1CN[C@H](COC(=O)NCC(F)(F)F)CO1` [Example 114, {(3S,6R)-6-[2-(3-{[(3S)-3-(4-Chlorophenyl)-3-(2,3-dihydro-1-benzofuran-5-yl)propanoyl]amino}-5-fluoropyridin-4-yl)ethyl]morpholin-3-yl}methyl (2,2,2-trifluoroethyl)carbamate] was tested, and the EC50 (HIV-1 (H9IIIB strain)) was 14 nM.

With `COC(=O)N[C@H](C(=O)Nc1cccc(F)c1OC[C@@H]1CN[C@H](COC(N)=O)CO1)[C@@H](c1ccc(F)cc1)c1cccc(F)c1` [Example 117, (βS)—N-[2-({(2S,5S)-5-[(Carbamoyloxy)methyl]morpholin-2-yl}methoxy)-3-fluorophenyl]-4-fluoro-β-(3-fluorophenyl)-Nα-(methoxycarbonyl)-L-phenylalaninamide] the EC50 (HIV-1 (H9IIIB strain)) was 18 nM.

In the case of `O=C(C[C@@H](c1ccc(F)cc1)c1ccccc1C(F)(F)F)Nc1cncc(F)c1CC[C@@H]1CN[C@H](COC(=O)NCC(F)(F)F)CO1` [Example 180, [(3S,6R)-6-{2-[3-fluoro-5-({(3S)-3-(4-fluorophenyl)-3-[2-(trifluoro-methyl)phenyl]propanoyl}amino)pyridin-4-yl]ethyl}morpholin-3-yl]methyl (2,2,2-trifluoroethyl)carbamate], the EC50 (HIV-1 (H9IIIB strain)) is reported as 310 nM.

Work on `COCCOc1ccc([C@@H](CC(=O)Nc2cncc(F)c2CC[C@@H]2CN[C@H](COC(=O)NCC(F)(F)F)CO2)c2ccc(F)cc2)cc1` [Example 181, [(3S,6R)-6-{2-[3-fluoro-5-({(3R)-3-(4-fluorophenyl)-3-[4-(2-methoxy-ethoxy)phenyl]propanoyl}amino)pyridin-4-yl]ethyl}morpholin-3-yl]methyl (2,2,2-trifluoroethyl)carbamate] yielded an EC50 (HIV-1 (H9IIIB strain)) of 50 nM.

In the case of `O=C(C[C@@H](c1ccc(F)cc1)c1cncc(C(F)(F)F)c1)Nc1cncc(F)c1CC[C@@H]1CN[C@H](COC(=O)NCC(F)(F)F)CO1` [Example 184, [(3S,6R)-6-{2-[3-fluoro-5-({(3S)-3-(4-fluorophenyl)-3-[5-(trifluoromethyl)pyridin-3-yl]propanoyl}amino)pyridin-4-yl]ethyl}morpholin-3-yl]methyl (2,2,2-trifluoroethyl)carbamate], the EC50 (HIV-1 (H9IIIB strain)) is reported as 15 nM.

Work on `N[C@H](C(=O)Nc1cccc(F)c1CC[C@@H]1CN[C@H](COC(=O)NCC(F)(F)F)CO1)[C@@H](c1ccc(F)cc1)C1CCOCC1` [Example 128, (βR)-4-Fluoro-N-(3-fluoro-2-{2-[(2R,5S)-5-({[(2,2,2-trifluoroethyl)carbamoyl]oxy}methyl)morpholin-2-yl]ethyl}phenyl)-β-(tetrahydro-2H-pyran-4-yl)-L-phenylalaninamide] yielded an EC50 (HIV-1 (H9IIIB strain)) of 91 nM.

Compound `CC1(C(=O)N[C@H](C(=O)Nc2cccc(F)c2CC[C@@H]2CN[C@H](COC(=O)NCC(F)(F)F)CO2)C(c2ccc(F)cc2)c2ccc(F)cc2)CC1` [Example 142, 4-Fluoro-β-(4-fluorophenyl)-N-(3-fluoro-2-{2-[(2R,5S)-5-({[(2,2,2-trifluoroethyl)carbamoyl]oxy}methyl)morpholin-2-yl]ethyl}phenyl)-Nα-[(1-methylcyclopropyl)carbonyl]-L-phenylalaninamide] has an EC50 (HIV-1 (H9IIIB strain)) of 150 nM.

For `O=C(CC(F)(F)F)NC[C@@H]1CO[C@H](CCc2c(F)cccc2NC(=O)CC(c2ccc(F)cc2)c2ccc(F)cc2)CN1` [Example 144, N-({(3R,6R)-6-[2-(2-{[3,3-Bis(4-fluorophenyl)propanoyl]amino}-6-fluorophenyl)ethyl]morpholin-3-yl}methyl)-3,3,3-trifluoropropanamide], the EC50 (HIV-1 (H9IIIB strain)) was 170 nM.
